Test results taken from US20220218690A1, “MONTELUKAST SALTS AND PHARMACEUTICAL COMPOSITIONS CONTAINING THE SAME” (GENETIC S.P.A., priority 2019, published 2022).
“Also recorded” adds a separate entry of the source.

How the values were obtained:
[1] = system: bronchial hyperreactivity
Protocol: (§1) Mouse model of asthma. Female BALB/c mice (8 weeks: Charles River) were sensitized through subcutaneous administration of Ovalbumin (100 μg dissolved in 400 μl of AlOH3 13.5 mg/ml) on days 0 and 8, on the twenty-first day the mice were stimulated by aerosolic administration of Ovalbumin (3% for twenty minutes). The mice were sacrificed after 48 hours and the bronchi used for the evaluation of bronchial reactivity at carbachol and salbutamol. The drugs were administered intraperitoneally prior to each exposure to the allergen. […] Pulmonary tissues were harvested and used for dosage of cytokines such as IL-4 and IL-13. In addition plasma levels of IgE were measured.

[2] = system: IgE; conditions: 0.3 mg/Kg; FIG. 18-A
Protocol: as §1

[3] = system: bronchial rings; conditions: Montelukast 1 μM, in vitro, FIG. 12
[4] = system: Paw mouse edema; conditions: 0.3 mg/kg intraperitoneal, 30 minutes before intraplantar carrageenin; FIG. 13

| SMILES | therapeutic efficacy in controlling the development of hyperreactivity to carbachol induced by sensitization ([1]; salt […] vs Formoterol 0.3 mg/kg and Montelukast 0.3 mg/kg (almost double molar dose), FIG. 16) | therapeutic efficacy in controlling the airway dysfunction induced by sensitization ([1]; salt at halved molar dose respect to single drugs) | IgE plasma levels [2] | effect of Montelukast preincubation on the bronchodilating response of Formoterol [3] | anti-inflammatory effect [4] |
| --- | --- | --- | --- | --- | --- |
| CC(C)(O)c1ccccc1CCC(SCC1(CC(=O)O)CC1)c1cccc(C=Cc2ccc3ccc(Cl)cc3n2)c1.COc1ccc(CC(C)NCC(O)c2ccc(O)c(NC=O)c2)cc1 (centres unmarked) [Montelukast formoterol salt, N-(2-(3-formamido-4-hydroxyphenyl)-2-hydroxyethyl)-1-(4-methoxy-phenyl)propan-2-aminium-2-(1-(((1-(3-(2-(7-chloroquinolin-2-yl)vinyl)-phenyl)-3-(2-(2-hydroxypropan-2-yl)phenyl)propyl)thio-)methyl)cyclopropyl)acetate] | significantly higher than the parent drugs Formoterol and Montelukast | significantly higher than Formoterol and Montelukast; also recorded: more efficiently reverses both airway effects |  |  |  |
| CC(C)(O)c1ccccc1CC[C@@H](SCC1(CC(=O)O)CC1)c1cccc(/C=C/c2ccc3ccc(Cl)cc3n2)c1 [Montelukast, (R,E)-2-(1-((1-(3-(2-(7-Chloroquinolin-2-yl)vinyl)phenyl)-3-(2-(2-hydroxypropan-2-yl)phenyl)propylthio)-methyl)cyclopropyl)acetic acid] |  |  | unaffected | does not alter the bronchodilating response of the Formoterol, preserves its efficacy | induces an anti-inflammatory effect |
